The conditions of series [1]: humans; cited from earlier work.
Series [2] can be described thus: Kinetics, tolerance and bioavailability study in healthy volunteers (nasal administration). Format: in vivo, humans. Conditions: human, plasma, inhaled or intranasal, formulation of Example 1, deduced from the kinetics results, read-out: bioavailability of piribedil administered by the nasal route. Here is the method:
Kinetics, Tolerance and Bioavailability Study in Healthy Volunteers
A study was carried out in 24 healthy volunteers in order to assess the local tolerance of the pharmaceutical composition according to the invention and also the kinetics of the formulation.
This study was carried out using the formulation described in Example 1, administered with the aid of a metering pump which delivers 100 μl of solution on each spray. The doses of piribedil tested are as follows: 0.1 mg, 0.25 mg, 0.5 mg, 1 mg and 2 mg, administered using two sprays each of 100 μl.

The term bioavailability denotes dose-corrected exposure relative to a reference, in per cent. As to `c1cnc(N2CCN(Cc3ccc4c(c3)OCO4)CC2)nc1` [piribedil, Piribedil], the “bioavailability by the oral route in relation to the parenteral route” value in series [1] is listed as “low”. The bioavailability in series [2] was 50 to 70%.

The record behind these values is patent US20060204449A1, “Nasal pharmaceutical composition of piribedil” (priority 2003, published 2006).
